Laboratory results published in ChEMBL document CHEMBL3885861, “Open TG-GATES”.

Species: Rattus norvegicus
Assay: Open TG-GATES - Regimen: Single
Format: toxicity, organism-based, Sprague-Dawley
Parameters: regimen Single, gender Male, age 6 weeks
Details: in vivo, po, 1000 mg/kg, route gavage, dose level High; for ALP / ALT / AST / BUN / CRE / Ca / Cl / DBIL / GLC / IP / K / LDH / Na / PL / RALB / TBIL / TC / TG / TP / gamma-GTP: tissue Plasma

SMILES: O=C(O)c1cccnc1 [NIACIN]
- Bas (3 h, tissue Blood): 0%
- Eos (3 h, tissue Blood): 1.2%
- Fbg (3 h, tissue Blood): 303 mg/dL
- Hb (3 h, tissue Blood): 13.2 g/dL
- Lym (3 h, tissue Blood): 75.2%
- MCHC (3 h, tissue Blood): 32.8%
- MCV (3 h, tissue Blood): 62.8 fL
- Mono (3 h, tissue Blood): 2.4%
- Neu (3 h, tissue Blood): 20%
- PT (3 h, tissue Blood): 16.2 s
- Plat (3 h, tissue Blood): 114.5 x10_4/uL
- RBC (3 h, tissue Blood): 642.4 x10_4/ul
- Ret (3 h, tissue Blood): 8.7%
- WBC (3 h, tissue Blood): 70.3 x10_2/uL
- ALP (3 h): 1421 IU/L
- ALT (3 h): 43.6 IU/L
- AST (3 h): 79.4 IU/L
- BUN (3 h): 12.2 mg/dL
- CRE (3 h): 0.2 mg/dL
- Ca (3 h): 10.6 mg/dL
- Cl (3 h): 106.2 meq/L
- DBIL (3 h): 0 mg/dL
- GLC (3 h): 187 mg/dL
- IP (3 h): 9.4 mg/dL
- K (3 h): 3.6 meq/L
- LDH (3 h): 226.4 IU/L
- Na (3 h): 140.8 meq/L
- PL (3 h): 118.2 mg/dL
- RALB (3 h): 3.1 g/dL
- TBIL (3 h): 0 mg/dL
- TC (3 h): 72.4 mg/dL
- TG (3 h): 24.4 mg/dL
- TP (3 h): 5.6 g/dL
- gamma-GTP (3 h): 1.2 IU/L
- Bas (6 h, tissue Blood): 0%
- Eos (6 h, tissue Blood): 1%
- Fbg (6 h, tissue Blood): 311 mg/dL
- Hb (6 h, tissue Blood): 13.6 g/dL
- Ht (6 h, tissue Blood): 41.3%
- Lym (6 h, tissue Blood): 75.8%
- MCHC (6 h, tissue Blood): 32.8%
- MCV (6 h, tissue Blood): 64.6 fL
- Mono (6 h, tissue Blood): 2%
- Neu (6 h, tissue Blood): 20.4%
- PT (6 h, tissue Blood): 16.4 s
- Plat (6 h, tissue Blood): 121.3 x10_4/uL
- RBC (6 h, tissue Blood): 641.2 x10_4/ul
- Ret (6 h, tissue Blood): 8.2%
- WBC (6 h, tissue Blood): 74.6 x10_2/uL
- ALP (6 h): 1566.4 IU/L
- ALT (6 h): 35 IU/L
- AST (6 h): 74.6 IU/L
- BUN (6 h): 12.4 mg/dL
- CRE (6 h): 0.2 mg/dL
- Ca (6 h): 10.6 mg/dL
- Cl (6 h): 107.6 meq/L
- DBIL (6 h): 0 mg/dL
- GLC (6 h): 181 mg/dL
- IP (6 h): 9.2 mg/dL
- K (6 h): 3.8 meq/L
- LDH (6 h): 210.8 IU/L
- Na (6 h): 139.6 meq/L
- PL (6 h): 115.2 mg/dL
- RALB (6 h): 3 g/dL
- TBIL (6 h): 0 mg/dL
- TC (6 h): 69.6 mg/dL
- TG (6 h): 27.8 mg/dL
- TP (6 h): 5.6 g/dL
- gamma-GTP (6 h): 1.4 IU/L
- APTT (9 h, tissue Blood): 22.8 s
- Bas (9 h, tissue Blood): 0%
- Eos (9 h, tissue Blood): 1%
- Fbg (9 h, tissue Blood): 324 mg/dL
- Hb (9 h, tissue Blood): 13.3 g/dL
- Lym (9 h, tissue Blood): 67%
- MCHC (9 h, tissue Blood): 33%
- MCV (9 h, tissue Blood): 62 fL
- Mono (9 h, tissue Blood): 1.8%
- Neu (9 h, tissue Blood): 29.8%
- PT (9 h, tissue Blood): 15.6 s
- Plat (9 h, tissue Blood): 116.6 x10_4/uL
- RBC (9 h, tissue Blood): 651 x10_4/ul
- Ret (9 h, tissue Blood): 8%
- WBC (9 h, tissue Blood): 71.1 x10_2/uL
- ALP (9 h): 1673.4 IU/L
- ALT (9 h): 41.2 IU/L
- AST (9 h): 75.2 IU/L
- BUN (9 h): 13 mg/dL
- CRE (9 h): 0.2 mg/dL
- Ca (9 h): 10.8 mg/dL
- Cl (9 h): 106.8 meq/L
- DBIL (9 h): 0.004 mg/dL
- GLC (9 h): 171.2 mg/dL
- IP (9 h): 9.4 mg/dL
- K (9 h): 3.9 meq/L
- LDH (9 h): 198.2 IU/L
- Na (9 h): 139.8 meq/L
- PL (9 h): 101.2 mg/dL
- RALB (9 h): 3.1 g/dL
- TBIL (9 h): 0.002 mg/dL
- TC (9 h): 60.6 mg/dL
- TG (9 h): 17.2 mg/dL
- TP (9 h): 5.5 g/dL
- gamma-GTP (9 h): 1.2 IU/L
- Bas (24 h, tissue Blood): 0%
- Eos (24 h, tissue Blood): 1%
- Fbg (24 h, tissue Blood): 319 mg/dL
- Hb (24 h, tissue Blood): 13.3 g/dL
- Ht (24 h, tissue Blood): 39.7%
- Lym (24 h, tissue Blood): 71.4%
- MCHC (24 h, tissue Blood): 33.4%
- MCV (24 h, tissue Blood): 63.3 fL
- Mono (24 h, tissue Blood): 3%
- Neu (24 h, tissue Blood): 23.2%
- PT (24 h, tissue Blood): 15.9 s
- Plat (24 h, tissue Blood): 117.3 x10_4/uL
- RBC (24 h, tissue Blood): 627 x10_4/ul
- Ret (24 h, tissue Blood): 7.2%
- WBC (24 h, tissue Blood): 92.1 x10_2/uL
- ALP (24 h): 1735.4 IU/L
- ALT (24 h): 53 IU/L
- AST (24 h): 75.4 IU/L
- BUN (24 h): 16.6 mg/dL
- CRE (24 h): 0.2 mg/dL
- Ca (24 h): 10.5 mg/dL
- Cl (24 h): 104.4 meq/L
- DBIL (24 h): 0 mg/dL
- GLC (24 h): 188.6 mg/dL
- IP (24 h): 8.1 mg/dL
- K (24 h): 4.1 meq/L
- LDH (24 h): 174.8 IU/L
- Na (24 h): 139.6 meq/L
- PL (24 h): 144.2 mg/dL
- RALB (24 h): 3 g/dL
- TBIL (24 h): 0 mg/dL
- TC (24 h): 70.6 mg/dL
- TG (24 h): 119.2 mg/dL
- TP (24 h): 5.4 g/dL
- gamma-GTP (24 h): 1 IU/L
